{"source": "patent US20180066295A1", "about": "“DEAMINATION OF ORGANOPHOSPHORUS-NUCLEOSIDES” (INSTITUT UNIV. DE CIÈNCIA I TECNOLOGIA, S. A., priority 2015, published 2018)", "key": {"cytidine deaminase": {"test_system": "cytidine deaminase", "conditions": "37° C.; for yield of deaminated product (HPLC, crude mixture): 5 hours", "protocol": "The reaction was performed at 37° C. during […] and stopped with HCl. Then, the crude reaction was filtered through a 10 KDa membrane, and a portion was diluted and analyzed by HPLC under UV-DAD (ultraviolet-diode array detection). Product identification was performed by comparison to a standard sample.\nAfter 5 hours, the reaction was stopped with HCl and a portion of the reaction was diluted and filtered for HPLC and MS analysis."}, "adenosine deaminase": {"target": "T1, adenosine deaminase (Homo sapiens, UniProt P00813)", "T1 sequence (P00813 1-363)": "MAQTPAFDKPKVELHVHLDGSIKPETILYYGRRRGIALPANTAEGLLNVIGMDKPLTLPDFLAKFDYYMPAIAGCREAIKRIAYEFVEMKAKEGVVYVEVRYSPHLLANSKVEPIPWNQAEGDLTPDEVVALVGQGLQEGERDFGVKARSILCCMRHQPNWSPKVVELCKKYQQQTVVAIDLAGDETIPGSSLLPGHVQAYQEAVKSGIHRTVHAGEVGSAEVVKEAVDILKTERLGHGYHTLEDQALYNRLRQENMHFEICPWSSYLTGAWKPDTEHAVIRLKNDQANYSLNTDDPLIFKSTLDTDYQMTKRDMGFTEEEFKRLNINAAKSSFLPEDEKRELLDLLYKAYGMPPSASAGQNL", "conditions": "commercially available purified enzyme, analytical conditions; cited from earlier work"}, "[1]": {"conditions": "20 mM substrate, KH2PO4 100 mM pH 7.0, 90 AU cytidine deaminase"}, "[2]": {"conditions": "100 mM substrate, KH2PO4 100 mM pH 7.0, 36-240 AU cytidine deaminase"}}, "note": "Structures can show the parent of a compound that is named as a salt. Where two headings read alike, the source gives them in different places."}
{"smiles": "COC(=O)[C@H](C)NP(=O)(OC[C@H]1O[C@@H](n2ccc(N)nc2=O)[C@H](O)[C@@H]1O)Oc1ccccc1.Cl", "note": "(stereo partly drawn) [compound 14-Me, methyl ((((2R,3S,4R,5R)-5-(4-amino-2-oxopyrimidin-1 (2H)-yl)-3,4-dihydroxytetrahydrofuran-2-yl)methoxy)(phenoxy)phosphoryl)-L-alaninate hydrochloride]", "values": [{"measurement": "yield of deaminated product (HPLC, crude mixture)", "setting": "cytidine deaminase; [1]", "value": "> 80", "unit": "%"}]}
{"smiles": "COC(=O)[C@@H](NP(=O)(OC[C@H]1O[C@@H](n2ccc(N)nc2=O)[C@H](O)[C@@H]1O)Oc1ccccc1)C(C)C", "note": "(stereo partly drawn) [compound 12, methyl ((((2R,3S,4R,5R)-5-(4-amino-2-oxopyrimidin-1 (2H)-yl)-3,4-dihydroxytetrahydrofuran-2-yl)methoxy)(phenoxy)phosphoryl)-L-valinate hydrochloride]", "values": [{"measurement": "yield of deaminated product (HPLC, crude mixture)", "setting": "cytidine deaminase; [1]", "value": "> 70", "unit": "%"}]}
{"smiles": "COC(=O)[C@@H](NP(=O)(OC[C@H]1O[C@@H](n2cnc(N)nc2=O)C[C@@H]1O)Oc1ccccc1)C(C)C", "note": "(stereo partly drawn) [compound 21, methyl ((((2R,3S,5R)-5-(4-amino-2-oxo-1,3,5-triazin-1(2H)-yl)-3-hydroxytetrahydrofuran-2-yl)methoxy)(phenoxy)phosphoryl)-L-valinate]", "values": [{"measurement": "yield of deaminated product (HPLC)", "setting": "cytidine deaminase; pH 6, 13 mM substrate, KH2PO4 100 mM, 66 AU cytidine deaminase, 24 hours", "value": "higher than 90%"}, {"measurement": "conversion into deaminated product", "setting": "cytidine deaminase; pH 7, 13 mM substrate, KH2PO4 100 mM, 66 AU cytidine deaminase, 24 hours", "value": "quantitatively"}, {"measurement": "conversion into deaminated product", "setting": "cytidine deaminase; pH 8, 13 mM substrate, KH2PO4 100 mM, 66 AU cytidine deaminase, 24 hours", "value": "quantitatively"}]}
{"smiles": "CC(C)OC(=O)[C@H](C)NP(=O)(OC[C@H]1O[C@@H](n2ccc(N)nc2=O)C(F)(F)[C@@H]1O)Oc1ccccc1", "note": "(stereo partly drawn) [compound 18, isopropyl ((((2R,3R,5R)-5-(4-amino-2-oxopyrimidin-1 (2H)-yl)-4,4-difluoro-3-hydroxytetrahydrofuran-2-yl)methoxy)(phenoxy)phosphoryl)-L-alaninate]", "values": [{"measurement": "yield of deaminated product (HPLC, crude mixture)", "setting": "cytidine deaminase; [2]", "value": "quantitative yield"}]}
{"smiles": "COC(=O)[C@@H](NP(=O)(OC[C@H]1O[C@@H](n2ccc(N)nc2=O)C(F)(F)[C@@H]1O)Oc1ccccc1)C(C)C", "note": "(stereo partly drawn) [compound 17, methyl ((((2R,3R,5R)-5-(4-amino-2-oxopyrimidin-1 (2H)-yl)-4,4-difluoro-3-hydroxytetrahydrofuran-2-yl)methoxy)(phenoxy)phosphoryl)-L-valinate]", "values": [{"measurement": "yield of deaminated product (HPLC, crude mixture)", "setting": "cytidine deaminase; [2]", "value": "quantitative yield"}]}
{"smiles": "COC(=O)[C@H](CC(C)C)NP(=O)(OC[C@H]1O[C@@H](n2ccc(N)nc2=O)C(F)(F)[C@@H]1O)Oc1ccccc1", "note": "(stereo partly drawn) [compound 16, methyl ((((2R,3R,5R)-5-(4-amino-2-oxopyrimidin-1(2H)-yl)-4,4-difluoro-3-hydroxytetrahydrofuran-2-yl)methoxy)(phenoxy)phosphoryl)-L-leucinate]", "values": [{"measurement": "yield of deaminated product (HPLC, crude mixture)", "setting": "cytidine deaminase; [2]", "value": "quantitatively"}]}
{"smiles": "COC(=O)[C@H](CC(C)C)NP(=O)(OC[C@H]1O[C@@H](n2ccc(N)nc2=O)[C@H](O)[C@@H]1O)Oc1ccccc1", "note": "(stereo partly drawn) [compound 10, methyl ((((2R,3S,4R,5R)-5-(4-amino-2-oxopyrimidin-1(2H)-yl)-3,4-dihydroxytetrahydrofuran-2-yl)methoxy)(phenoxy)phosphoryl)-L-leucinate hydrochloride]", "values": [{"measurement": "yield of deaminated product (HPLC, crude mixture)", "setting": "cytidine deaminase; [1]", "value": "> 70", "unit": "%"}]}
{"smiles": "Nc1ncnc2c1ncn2[C@H]1C[C@H](O)[C@@H](CO)O1", "note": "[deoxyadenosine]", "values": [{"measurement": "deamination yield", "setting": "adenosine deaminase", "value": 59, "unit": "%"}]}
{"smiles": "CC(C)OC(=O)[C@H](C)NP(=O)(OC[C@H]1O[C@@H](n2ccc(N)nc2=O)[C@H](O)[C@@H]1O)Oc1ccccc1", "note": "(stereo partly drawn) [compound 14, isopropyl ((((2R,3S,4R,5R)-5-(4-amino-2-oxopyrimidin-1(2H)-yl)-3,4-dihydroxytetrahydrofuran-2-yl)methoxy)(phenoxy)phosphoryl)-L-alaninate hydrochloride]", "values": [{"measurement": "yield of deaminated product (HPLC, crude mixture)", "setting": "cytidine deaminase; [1]", "value": "quantitatively"}]}
